Assay results from US8426452B2, “Process for the treatment and prevention of diseases caused by fungi” (priority 2008, dated 2013).
Read-outs that look alike come from different tables or passages of the source.

How the values were obtained:
[1] = tested on: C. albicans strain ATCC 96901; experiment: Growth inhibition of fluconazole-resistant C. albicans strain ATCC 96901 in YPD medium (turbidity, A600)
Method: (§1) AH109 cells or ATCC 96901 cells were inoculated into 200.0 ml of YPD to obtain an initial OD600 reading of 0.005 on a spectrophotometer. […] The yeast suspensions were placed on a shaking incubator set at 200 rpm and 30° C. for 18-24 hr (S. cerevisiae) or 10-12 hr (C. albicans), and then the extent of fungal growth was assessed by measuring the sample absorbance at 600 nm (A600 nm) on a spectrophotometer. The effect of each concentration of antifungal agent was tested in triplicate.

[2] = tested on: S. cerevisiae strain AH109; experiment: Growth inhibition of S. cerevisiae strain AH109 in YPD medium (turbidity, A600)
Method: as §1

C. albicans strain S2 = experiment: Broth microdilution susceptibility testing (MIC), C. albicans strain S2; settings: fluconazole-resistant C. albicans strain S2, RPMI medium pH 7.0, 48 hr, 30° C.; MIC = lowest concentration with 100% growth inhibition
Method: (§2) Broth Microdilution Susceptibility Testing of C. albicans:
(§3) Note that all susceptibility assays were performed in triplicate wells using sterile flat-bottom 24-well microtiter plates.

[3] = tested on: C. albicans strain ATCC 96901; experiment: Broth microdilution susceptibility testing (MIC), C. albicans strain ATCC 96901; settings: fluconazole-resistant C. albicans strain ATCC 96901, RPMI medium pH 7.0, 48 hr, 30° C.; MIC = lowest concentration with 100% growth inhibition
Method: as §2, §3

[4] = Candida albicans, ATCC96901, read-out: IC50, concentration of drug required to inhibit the growth of yeast cells by 50%
[5] = Saccharomyces cerevisiae, AH109, AH109, read-out: IC50, concentration of drug required to inhibit the growth of yeast cells by 50%

Method for A-431 human skin cells: Cells were then incubated for 48 hr at 37° C. After incubation, the MTT viability assay was performed. This assay measures the conversion of 3-[4,5-dimethylthiazol-2-yl]-2,5-diphenyl tetrazolium bromide (MTT) into a colored product in living cells.
The MTT assay was used to determine cell viability and the LC50 value for each compound was evaluated.

| Structure (SMILES) | IC50 ([1]; read-out: IC50, concentration of drug required to inhibit the growth of yeast cells by 50%, fluconazole-resistant C. albicans ATCC 96901, YPD medium, 10-12 hr, 30° C.) | IC50 ([2]; read-out: IC50, concentration of drug required to inhibit the growth of yeast cells by 50%, S. cerevisiae AH109, YPD medium, 18-24 hr, 30° C.) | MIC compared with fluconazole (C. albicans strain S2) | IC50 [1, 4] | Toxicity to A-431 human skin cells (MTT viability, LC50 evaluated) (A-431 human skin cells) | MIC compared with fluconazole [3] | IC50 [2, 5] |
| --- | --- | --- | --- | --- | --- | --- | --- |
| C[C@@H]1[C@H](O)[C@@H](C)/C=C/C=C/C=C/C=C/C=C/C=C/C=C/[C@H](O[C@@H]2O[C@H](C)[C@@H](O)[C@H](N)[C@@H]2O)C[C@@H]2O[C@](O)(C[C@@H](O)C[C@@H](O)[C@H](O)CC[C@@H](O)C[C@@H](O)CC(=O)O[C@H]1C)C[C@H](O)[C@H]2C(=O)O [amphotericin B] | 0.23 µM | 0.03 µM | – | – | – | – | – |
| O=C1c2ccccc2[Se](=O)N1c1ccccc1 (stereo not drawn) [ebselen se-oxide, 2-phenyl-1,2-benzisoselenazol-3(2H)-one 1-oxide] | – | – | lower MIC values, than fluconazole | 4.5 µM | neither compound was toxic | lower MIC values, than fluconazole | 2.1 µM |
| O=c1c2ccccc2[se]n1-c1ccccc1 [ebselen, 2-phenyl-1,2-benzisoselenazol-3(2H)-one] | – | – | lower MIC values, than fluconazole | 5.83 µM | neither compound was toxic | lower MIC values, than fluconazole | 4.6 µM |
| OC(Cn1cncn1)(Cn1cncn1)c1ccc(F)cc1F [fluconazole] | – | – | – | 460 µM | – | – | 53 µM |
| CCC(C)n1ncn(-c2ccc(N3CCN(c4ccc(OCC5COC(Cn6cncn6)(c6ccc(Cl)cc6Cl)O5)cc4)CC3)cc2)c1=O (stereo not drawn) [itraconazole] | – | – | – | 0.48 µM | – | – | 1.13 µM |
| CC(=O)N1CCN(c2ccc(OCC3COC(Cn4ccnc4)(c4ccc(Cl)cc4Cl)O3)cc2)CC1 (stereo not drawn) [ketoconazole] | – | – | – | 0.21 µM | – | – | 0.54 µM |
